Measurements: patent US20230295133A1, “PROCESS FOR PREPARING A COMPOUND USEFUL TO TREAT MYCOSES” (PULMOCIDE LIMITED, priority 2014, published 2023)
≈ marks a conversion by molar mass, not a printed value. Like-named read-outs stand apart in the source and are kept apart here.

Legend:
[1] = test system: Aspergillus fumigatus NCPF7100; experiment: Broth microdilution assay (modified EUCAST); assay type: cell-based; details: Aspergillus fumigatus, NCPF7100, read-out: MIC75 against Aspergillus fumigatus isolate NCPF7100
[2] = test system: aspergillus fumigatus (ATCC 13073 [strain: NIH 5233]); experiment: In vivo anti-fungal activity, prophylactic and therapeutic treatment of infected immunocompromised neutropenic mice; set-up: species or system A/J mice; details: for % Inhibition versus Infected Control, GM in BALF / % Inhibition versus Infected Control, GM in serum / % Inhibition versus Infected Control, Lung Fungal Load: therapeutic treatment (days 1, 2 and 3); for % Inhibition versus Infected Controls, GM in BALF / % Inhibition versus Infected Controls, GM in serum / % Inhibition versus Infected Controls, Lung Fungal Load: prophylactic treatment (days 0, 1, 2 and 3)
[3] = test system: Aspergillus fumigatus NCPF2010; experiment: Broth microdilution assay (modified EUCAST); assay type: cell-based; details: Aspergillus fumigatus
Procedure, shortened: (§1)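 Spores from 3-day Sabouraud cultures (working suspension 2 × 10^5 spores/mL) were added to an equal volume of RPMI-1640 (2 mM L-glutamine, 0.5% BSA, 2% glucose, 0.165 M MOPS, pH 7) containing compound, in quadruplicate. After 48 hr at 35 °C, OD530 gave percent inhibition. MIC50, MIC75 and MIC90 came from concentration-response curves.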

[4] = test system: Aspergillus fumigatus NCPF7099; experiment: Broth microdilution assay (modified EUCAST); assay type: cell-based; details: Aspergillus fumigatus, NCPF7099, n = 3, read-out: MIC75 against Aspergillus fumigatus isolate NCPF7099
Procedure, shortened: as §1

[5] = test system: Aspergillus fumigatus L98H (TR34/L98H); experiment: Broth microdilution assay (modified EUCAST); assay type: cell-based; details: Aspergillus fumigatus, read-out: MIC75 against Aspergillus fumigatus isolate L98H
Procedure, shortened: as §1

[6] = Cell viability: resazurin assay; assay type: cell-based, human; details: human, BEAS2B cells; n = 3-5
Procedure, shortened: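 BEAS2B cells in RPMI-LHC8, exposed to compound for 1 day at 37 °C (0.5% DMSO final), then resazurin added for a further 4 h. Fluorescence (ex 545/em 590 nm) gives % viability loss vs 0.5% DMSO vehicle; CC50 from concentration-response curve.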

[7] = test system: aspergillus fumigatus infection of BEAS2B cells; experiment: Aspergillus fumigatus infection of bronchial epithelial cells (GM in supernatant); assay type: cell-based; details: bronchial epithelial cells infected with Aspergillus fumigatus; read-out: MIC50 Infection of BEAS2B cells
Procedure, shortened: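 BEAS2B cells in 10% FBS RPMI-1640 pre-treated with compound (0.5% DMSO final) for 1 hr at 35 °C, then infected with A. fumigatus conidia (0.5×10^5/ml suspension) for 24 hr at 35 °C. Galactomannan in 1:20-diluted supernatant measured by Platelia GM-EIA; IC50 from percent-inhibition concentration-response curves.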

[8] = test system: aspergillus fumigatus (ATCC 13073 [strain: NIH 5233]); experiment: Survival of severely immunosuppressed neutropenic infected mice, monotherapy and combination; assay type: in vivo, A/J mice; details: Example 1 0.4 mg/mL (in); Posaconazole 1 mg/kg (po); once daily days 1-6
Procedure: On day 0, animals were infected intranasally with 35 µL of the spore suspension (1.67 × 10^8 spores/mL in physiological saline) of aspergillus fumigatus (ATCC 13073 [strain: NIH 5233]). Compound Example (I), prepared as a suspension in isotonic saline (0.4 mg/mL), was dosed once daily by an intra-nasal injection (35 µL/mouse) on days 1-6 after infection. Posaconazole (1 mg/kg) was given orally once daily on days 1-6 after infection. Body weight and survival were monitored daily up to day 7.

[9] = test system: Chaectomium globosum ATCC44699; experiment: Fungus panel screening, CLSI broth microdilution; assay type: cell-based
Procedure: Fungus panel screening was conducted by Eurofins Panlabs Inc. The MIC and MIC50 values of the test articles were determined following the guidelines of the Clinical and Laboratory Standards Institute, broth microdilution methods for yeast (CLSI M27-A2), (CLSI, 2002) and for filamentous fungi (CLSI M38-A), (CLSI, 2008).

[10] = NCPF2010, read-out: MIC75 against Aspergillus fumigatus isolate NCPF2010

**Q.** For `Cc1nc(N2CCN(c3ccc(C(=O)Nc4ccc(F)cc4)cc3)CC2)ccc1OC[C@@H]1CO[C@@](Cn2cncn2)(c2ccc(F)cc2F)C1` [Example 3, 4-(4-(5-(((3R,5R)-5-((1H-1,2,4-Triazol-1-yl)Methyl)-5-(2,4-Difluorophenyl)Tetra Hydrofuran-3-yl)Methoxy)-6-Methylpyridin-2-yl)Piperazin-1-yl)-N-(4-Fluorophenyl) Benzamide], which MIC [1] is on record?
**A.** 0.0451 µM (≈ 0.0308 µg/mL)

**Q.** And the “% Inhibition versus Infected Control, GM in BALF” value ([2]; 0.08 mg/mL)?
**A.** 95%

**Q.** And the “% Inhibition versus Infected Control, GM in serum” value ([2]; 0.08 mg/mL)?
**A.** 92%

**Q.** And the “% Inhibition versus Infected Control, Lung Fungal Load” value ([2]; 0.08 mg/mL)?
**A.** 98%

**Q.** What about the “% Inhibition versus Infected Control, GM in BALF” value ([2]; 0.4 mg/mL) of the same compound?
**A.** 86%

**Q.** What about the “% Inhibition versus Infected Control, GM in serum” value ([2]; 0.4 mg/mL) of the same compound?
**A.** 89%

**Q.** What about the “% Inhibition versus Infected Control, Lung Fungal Load” value ([2]; 0.4 mg/mL) of the same compound?
**A.** 96%

**Q.** What about the MIC [3, 10] of the same compound?
**A.** 0.018 µM (≈ 0.0123 µg/mL)

**Q.** What about the MIC [4] of the same compound?
**A.** 0.0276 µM (≈ 0.0189 µg/mL)

**Q.** What about the MIC [5] of the same compound?
**A.** 0.033 µM (≈ 0.0226 µg/mL)

**Q.** What about the CC50 at 1 day [6] of the same compound?
**A.** > 14.6 µM

**Q.** And the MIC50 [7]?
**A.** 0.0517 µM (≈ 0.0353 µg/mL)

**Q.** What does the source list for `N#Cc1cc(N2CCN(c3ccc(C(=O)Nc4ccc(F)cc4)cc3)CC2)ccc1OC[C@@H]1CO[C@@](Cn2cncn2)(c2ccc(F)cc2F)C1` [Example 4, 4-(4-(4-(((3R,5R)-5-((1H-1,2,4-Triazol-1-yl)Methyl)-5-(2,4-Difluorophenyl) Tetrahydrofuran-3-yl)Methoxy)-3-Cyanophenyl)Piperazin-1-yl)-N-(4-Fluorophenyl) Benzamide]?
**A.** MIC [1]: 0.0383 µM (≈ 0.0266 µg/mL); % Inhibition versus Infected Controls, GM in BALF ([2]; 0.4 mg/mL): 84%; % Inhibition versus Infected Controls, GM in serum ([2]; 0.4 mg/mL): 90%; % Inhibition versus Infected Controls, Lung Fungal Load ([2]; 0.4 mg/mL): 85%; MIC [3, 10]: 0.00868 µM (≈ 0.00602 µg/mL); MIC [4]: 0.0413 µM (≈ 0.0287 µg/mL); MIC [5]: 0.0737 µM (≈ 0.0511 µg/mL); CC50 at 1 day [6]: > 14.4 µM; MIC50 [7]: 0.00777 µM (≈ 0.00539 µg/mL)

**Q.** Which MIC [1] does the source give for `O=C(Nc1ccc(F)cc1)c1ccc(N2CCN(c3ccc(OC[C@@H]4CO[C@@](Cn5cncn5)(c5ccc(F)cc5F)C4)c(CO)c3)CC2)cc1` [Example 16, 4-(4-(4-(((3R, 5R)-5-((1H-1,2,4-triazol-1-yl)methyl)-5-(2,4-difluorophenyl)tetrahydrofuran-3-yl)methoxy)-3-hydroxymethylphenyl)piperazin-1-yl)-N-(4-fluorophenyl)benzamide] here?
**A.** 0.00658 µM (≈ 0.0046 µg/mL)

**Q.** And the “% Inhibition versus Infected Control, GM in BALF” value ([2]; 0.08 mg/mL)?
**A.** 76%

**Q.** And the “% Inhibition versus Infected Control, GM in serum” value ([2]; 0.08 mg/mL)?
**A.** 62%

**Q.** What about the “% Inhibition versus Infected Control, Lung Fungal Load” value ([2]; 0.08 mg/mL) of the same compound?
**A.** 91%

**Q.** What about the “% Inhibition versus Infected Control, GM in BALF” value ([2]; 0.4 mg/mL) of the same compound?
**A.** 88%

**Q.** What about the “% Inhibition versus Infected Control, GM in serum” value ([2]; 0.4 mg/mL) of the same compound?
**A.** 85%

**Q.** What about the “% Inhibition versus Infected Control, Lung Fungal Load” value ([2]; 0.4 mg/mL) of the same compound?
**A.** 96%

**Q.** And the MIC [3, 10]?
**A.** 0.00512 µM (≈ 0.00358 µg/mL)

**Q.** What about the MIC [4] of the same compound?
**A.** 0.00926 µM (≈ 0.00647 µg/mL)

**Q.** What about the MIC [5] of the same compound?
**A.** 0.0335 µM (≈ 0.0234 µg/mL)

**Q.** And the CC50 at 1 day [6]?
**A.** > 14.3 µM

**Q.** What about the MIC50 [7] of the same compound?
**A.** 0.00082 µM (≈ 0.000573 µg/mL)

**Q.** Which MIC [1] does the source give for `Cc1cc(N2CCN(c3ccc(C(=O)Nc4ccc(S(N)(=O)=O)cc4)cc3)CC2)ccc1OC[C@@H]1CO[C@@](Cn2cncn2)(c2ccc(F)cc2F)C1` [Example 19, 4-(4-(4-(((3R, 5R)-5-((1H-1,2,4-triazol-1-yl)methyl)-5-(2,4-difluorophenyl)tetrahydrofuran-3-yl)methoxy)-3-methylphenyl)piperazin-1-yl)-N-(4-sulfamoylphenyl)benzamide] here?
**A.** 0.0227 µM (≈ 0.0169 µg/mL)

**Q.** What about the “% Inhibition versus Infected Controls, GM in BALF” value ([2]; 0.4 mg/mL) of the same compound?
**A.** 16%

**Q.** What about the “% Inhibition versus Infected Controls, GM in serum” value ([2]; 0.4 mg/mL) of the same compound?
**A.** 30%

**Q.** What about the “% Inhibition versus Infected Controls, Lung Fungal Load” value ([2]; 0.4 mg/mL) of the same compound?
**A.** 62%

**Q.** What about the “% Inhibition versus Infected Controls, GM in BALF” value ([2]; 2 mg/mL) of the same compound?
**A.** 41%

**Q.** And the “% Inhibition versus Infected Controls, GM in serum” value ([2]; 2 mg/mL)?
**A.** 47%

**Q.** What about the “% Inhibition versus Infected Controls, Lung Fungal Load” value ([2]; 2 mg/mL) of the same compound?
**A.** 74%

**Q.** And the MIC [3, 10]?
**A.** 0.0166 µM (≈ 0.0123 µg/mL)

**Q.** And the MIC [4]?
**A.** 0.0089 µM (≈ 0.00662 µg/mL)

**Q.** What about the MIC [5] of the same compound?
**A.** 0.0577 µM (≈ 0.0429 µg/mL)

**Q.** And the CC50 at 1 day [6]?
**A.** > 13.4 µM

**Q.** What about the MIC50 [7] of the same compound?
**A.** 0.0172 µM (≈ 0.0128 µg/mL)

**Q.** For `Cc1cc(N2CCN(c3ccc(C(=O)Nc4ccc(C#N)cc4F)cc3)CC2)ccc1OC[C@@H]1CO[C@@](Cn2cncn2)(c2ccc(F)cc2F)C1` [Example 23, 4-(4-(4-(((3R, 5R)-5-((1H-1,2,4-triazol-1-yl)methyl)-5-(2,4-difluorophenyl)tetrahydrofuran-3-yl)methoxy)-3-methylphenyl)piperazin-1-yl)-N-(4-cyano-2-fluorophenyl)benzamide], which MIC [1] is on record?
**A.** 0.0443 µM (≈ 0.0314 µg/mL)

**Q.** And the “% Inhibition versus Infected Controls, GM in BALF” value ([2]; 0.4 mg/mL)?
**A.** 71%

**Q.** What about the “% Inhibition versus Infected Controls, GM in serum” value ([2]; 0.4 mg/mL) of the same compound?
**A.** 79%

**Q.** What about the “% Inhibition versus Infected Controls, Lung Fungal Load” value ([2]; 0.4 mg/mL) of the same compound?
**A.** 56%

**Q.** What about the MIC [3, 10] of the same compound?
**A.** 0.0126 µM (≈ 0.00892 µg/mL)

**Q.** And the MIC [4]?
**A.** 0.0284 µM (≈ 0.0201 µg/mL)

**Q.** And the MIC [5]?
**A.** 0.0602 µM (≈ 0.0426 µg/mL)

**Q.** And the CC50 at 1 day [6]?
**A.** > 14.1 µM

**Q.** What about the MIC50 [7] of the same compound?
**A.** 0.00337 µM (≈ 0.00239 µg/mL)

**Q.** Which Median survival [8] does the source give for `CC[C@@H]([C@H](C)O)n1ncn(-c2ccc(N3CCN(c4ccc(OC[C@@H]5CO[C@@](Cn6cncn6)(c6ccc(F)cc6F)C5)cc4)CC3)cc2)c1=O` [Posaconazole, reference compound] here?
**A.** 6.5 days

**Q.** What about the “No. of survivors on day 7” value [8] of the same compound?
**A.** 0/6

**Q.** What about the “Survivors on day 7 (%)” value [8] of the same compound?
**A.** 0%

**Q.** What about the “% Inhibition versus Infected Controls, GM in BALF” value ([2]; 0.4 mg/mL) of the same compound?
**A.** 20%

**Q.** And the “% Inhibition versus Infected Controls, GM in serum” value ([2]; 0.4 mg/mL)?
**A.** 34%

**Q.** And the “% Inhibition versus Infected Controls, Lung Fungal Load” value ([2]; 0.4 mg/mL)?
**A.** 44%

**Q.** And the MIC ([3]; NCPF2010, broth microdilution assay, n = 3, read-out: MIC75 against Aspergillus fumigatus isolate NCPF2010)?
**A.** 0.0153 µM (≈ 0.0107 µg/mL)

**Q.** And the MIC50 ([9]; 50% inhibition by visual inspection (CLSI))?
**A.** 0.13 µg/mL (≈ 0.186 µM)

**Q.** What about the MIC ([9]; 100% inhibition by visual inspection (CLSI), read-out: MIC100) of the same compound?
**A.** 0.25 µg/mL (≈ 0.357 µM)
